Results from publication PMC5819316, “Structural and Biochemical Characterization of BdsA from Bacillus subtilis WU-S2B, a Key Enzyme in the “4S” Desulfurization Pathway” (Frontiers in Microbiology, 2018).

B1: DBT sulfone monooxygenase BdsA from Bacillus subtilis WU-S2B (enzyme)
chain: MAEQRQLHLAGFFSAGNVTHAHGAWRHVGATNGFLTGEFYKQIARTLERGKFDLLFLPDGLAIEDSYGDNLETGVGLGGQGAVALEPTSVIATMAAVTQRLGLGATVSTTYYPPYHVARVFATLDNLSDGRISWNVVTSLNDSEARNFGVDEHLEHDIRYDRADEFLEAVKKLWSSWSEDALLLDKVGGRFADPKKVQYVNHRGRWLSVRGPLQVPRSRQGEPVILQAGLSPRGRRFAGRWAEAVFSVSPNLDIMRAVYQDIKAHVAAAGRDPEQTKVFTAVMPVLGETEQVARERLEYLNSLVHPEVGLSTLSSHSGLNLSKYPLDTKFSDIVADLGDRHVPTMLQMFSAVAGGGADLTLAELGRRYGTNVGFVPQWAGTAEQIADQLISHFEAGAADGFIISPAYLPGIYEEFVDQVVPLLQQRGVFRTEYEGTTLREHLGLAHPEVGSIR
notes: BdsA (DBT sulfone monooxygenase), Bacillus subtilis WU-S2B; synthesized bdsA gene cloned into the NdeI and XhoI sites of pET-15b; each monomer is composed of 453 amino acids; in the crystal the N-terminus to Gln4 and Ser451 to the C-terminus are not visible; No removal of the His-tag is described; also called apo-BdsA; dibenzothiophene sulfone monooxygenase; source: E. coli BL21 (DE3), purified …

How the values were obtained:
BdsA = molecular target: T1, BdsA (Bacillus subtilis, UniProt Q8GRC7); assay: X-ray crystallography, […] A, crystal soaking; assay type: binding; settings: crystals soaked in 1 mM FMN for 30 min, pH 5.5; one FMN per subunit, active site
T1 construct: monomer 453 residues; homotetramer, ~220 kDa by gel filtration

[1] = molecular target: the molecule itself; assay: SEC; Superdex-200 gel filtration in 10 mM Tris-HCl (pH 8.0), 100 mM NaCl; oligomeric state in solution from the elution volume (~220 kDa)

| Molecule | X-ray crystallography, 2.4 A, crystal soaking (BdsA) | stoichiometry N [1] |
| --- | --- | --- |
| Cc1cc2nc3c(=O)[nH]c(=O)nc-3n(C[C@H](O)[C@H](O)[C@H](O)COP(=O)(O)O)c2cc1C [FMN] | The structure of the tetrameric BdsA–FMN complex contains four FMN molecules |  |
| B1 |  | 4 |
